In brackets after ≈: the same amount, converted by molar mass. Activity calls are given as the source filed them. The calls are words filed in the database; no cut-off is given here.
Key:
Candida albicans [1] = assay: Induction of apoptosis in Candida albicans SC5314 non-protoplast cells assessed as necrotic cells at 16 ug/ml incubated for 18 hrs by PI/Annexin V staining based flow cytometry assay; assay type: functional; conditions: dose 16 µg/ml
Candida albicans [2] = assay: Antifungal against Candida albicans cnb1delta/cnb1delta mutant biofilm assessed as increase cell membrane permeability at 16 ug/ml incubated for 18 hrs by Rho123 and Hoechst 33342 double staining based confocal laser scanning microscopic analysis; assay type: functional, organism-based; conditions: dose 16.0 µg/ml
Candida albicans [3] = assay: Antifungal activity against Candida albicans SC5314 assessed as inhibition of fungal growth at 0.0625 ug/ml incubated for 18 hrs by M27-A3 based microdilution method relative to control; assay type: functional
Candida albicans [4] = assay: Antifungal activity against Candida albicans SC5314 assessed as inhibition of fungal growth at 0.0625 ug/ml incubated for 48 hrs by M27-A3 based microdilution method relative to control; assay type: functional
Candida albicans [5] = assay: Fungicidal activity against Candida albicans SC5314 assessed as inhibition of fungal growth incubated for 48 hrs by M27-A3 based microdilution method; assay type: functional
Candida albicans [6] = assay: Antifungal against Candida albicans SC5314 biofilm co-cultured with African green monkey Vero cells assessed as accidental cell death in pseudohyphal cells by measuring orange fluorescence emission at 16 ug/ml incubated for 18 hrs by PI/acridine orange double staining based confocal laser scanning microscopic analysis; assay type: functional, organism-based; conditions: dose 16.0 µg/ml
Candida tropicalis = assay: Inhibition of ergosterol biosynthesis in Candida tropicalis C129 assessed as reduction in ergosterol level incubated for 18 hrs by spectrophotometric analysis; assay type: functional; conditions: dose 0.06-32 µg/ml, DDE = dose-dependent effect
Candida albicans [7] = assay: Antifungal activity against Candida albicans SC5314 assessed as inhibition of fungal growth at 2 ug/ml incubated for 18 hrs by M27-A3 based microdilution method relative to control; assay type: functional
Candida albicans [8] = assay: Antifungal activity against Candida albicans SC5314 assessed as inhibition of fungal growth at 0.5 ug/ml incubated for 48 hrs by M27-A3 based microdilution method relative to control; assay type: functional
Candida albicans [9] = assay: Antifungal activity against Candida albicans SC5314 assessed as inhibition of fungal growth at 0.03125 ug/ml incubated for 18 hrs by M27-A3 based microdilution method relative to control; assay type: functional
Candida albicans [10] = assay: Effect on HSP90 expression in Candida albicans cnb1delta/CNB1 mutant assessed as fold increase in relative expression of HSP90 gene level at 2 ug/ml incubated for 18 hrs in presence of calcium chloride by RT-PCR analysis; assay type: functional; conditions: dose 2.0 µg/ml
Candida albicans [11] = assay: Antifungal activity against Candida albicans SC5314 assessed as inhibition of fungal growth at 16 ug/ml incubated for 18 hrs by M27-A3 based microdilution method relative to control; assay type: functional
[12] = Toxicity in Galleria mellonella larvae assessed as melanization of larvae at 16 ug/ml measured every 24 hrs upto 5 days relative to control; conditions: 120 h, at 16 µg/mL, time < 5 day
Candida albicans [13] = assay: Induction of macrophage-mediated Candida albicans SC5314 phagocytosis assessed as change in hyphae properties at 16 ug/ml incubated for 18 hrs in presence of mouse RAW264.7 macrophages by PI/Acridine orange double staining based confocal laser scanning microscopic analysis; assay type: functional; conditions: dose 16.0 µg/ml
Candida albicans [14] = assay: In vivo antifungal activity against Candida albicans SC5314 infected in Galleria mellonella larvae assessed as prevention of candidiasis at 16 ug/ml administered 1 hr post infection measured after 5 days by Hematoxylin and eosin staining; assay type: functional, organism-based; conditions: dose 16.0 µg/ml, time 5.0 day
Candida albicans [15] = assay: Effect on HSP90 expression in Candida albicans BWP17 assessed as decrease in relative expression of HSP90 gene level at 2 ug/ml incubated for 18 hrs by RT-PCR analysis; assay type: functional; conditions: dose 2.0 µg/ml
Candida albicans [16] = assay: Inhibition of ergosterol biosynthesis in Candida albicans SC5314 assessed as reduction in ergosterol level incubated for 18 hrs by spectrophotometric analysis; assay type: functional; conditions: dose 0.06-32 µg/ml, DDE = dose-dependent effect
Candida albicans [17] = assay: Antifungal activity against Candida albicans assessed as inhibition of fungal growth measured after 48 hrs by M27-A3 based broth microdilution; assay type: functional
Candida albicans [18] = assay: Antifungal activity against Candida albicans SC5314 assessed as inhibition of fungal growth at 2 ug/ml incubated for 48 hrs by M27-A3 based microdilution method relative to control; assay type: functional
Candida albicans [19] = assay: Antifungal activity against Candida albicans SC5314 assessed as inhibition of fungal growth at 4 ug/ml incubated for 48 hrs by M27-A3 based microdilution method relative to control; assay type: functional
Candida albicans [20] = assay: Antifungal against Candida albicans SC5314 biofilm co-cultured with African green monkey Vero cells assessed as lysosomal membrane permeabilization at 16 ug/ml incubated for 18 hrs by PI/acridine orange double staining based confocal laser scanning microscopic analysis; assay type: functional, organism-based; conditions: dose 16.0 µg/ml

SMILES: O=C1CN=C(c2ccccc2Br)c2cc(F)ccc2N1CCCn1nnc(-c2ccccc2Cl)n1
- Activity (Candida albicans [1]): 81.37%
- Activity (Candida albicans [2]): Active
- inhibition at 0.0625 µg/mL (Candida albicans [3]): 99.2%
- inhibition at 0.0625 µg/mL (Candida albicans [4]): 99.4%
- inhibition (INH) (Candida albicans [5]): 99.6%
- Activity (Candida albicans [6]): Active
- Activity (Candida tropicalis): Dde
- inhibition at 2 µg/mL (Candida albicans [7]): 100%
- inhibition at 0.5 µg/mL (Candida albicans [8]): 99.3%
- inhibition at 0.03125 µg/mL (Candida albicans [9]): 100%
- fold change (FC) (Candida albicans [10]): 4
- inhibition at 16 µg/mL (Candida albicans [11]): 100%
- Activity [12]: 7%
- Activity (Candida albicans [13]): Active
- Activity (Candida albicans [14]): Active
- Activity (Candida albicans [15]): Active
- Activity (Candida albicans [16]): Dde
- MIC (Candida albicans [17]): 64 µg/mL (≈ 116 µM)
- inhibition at 2 µg/mL (Candida albicans [18]): 100%
- inhibition at 4 µg/mL (Candida albicans [19]): 99.3%
- Activity (Candida albicans [20]): Active
